{"source": "ChEMBL document CHEMBL2010722", "about": "“Structure-activity relationship study of beta-carboline derivatives as haspin kinase inhibitors” (Bioorg Med Chem Lett, 2012)", "key": {"[1]": {"biological_target": "Tyrosine-protein kinase Lyn (Homo sapiens) (UniProt P07948)", "sequence (P07948 2-512 limits assumed)": "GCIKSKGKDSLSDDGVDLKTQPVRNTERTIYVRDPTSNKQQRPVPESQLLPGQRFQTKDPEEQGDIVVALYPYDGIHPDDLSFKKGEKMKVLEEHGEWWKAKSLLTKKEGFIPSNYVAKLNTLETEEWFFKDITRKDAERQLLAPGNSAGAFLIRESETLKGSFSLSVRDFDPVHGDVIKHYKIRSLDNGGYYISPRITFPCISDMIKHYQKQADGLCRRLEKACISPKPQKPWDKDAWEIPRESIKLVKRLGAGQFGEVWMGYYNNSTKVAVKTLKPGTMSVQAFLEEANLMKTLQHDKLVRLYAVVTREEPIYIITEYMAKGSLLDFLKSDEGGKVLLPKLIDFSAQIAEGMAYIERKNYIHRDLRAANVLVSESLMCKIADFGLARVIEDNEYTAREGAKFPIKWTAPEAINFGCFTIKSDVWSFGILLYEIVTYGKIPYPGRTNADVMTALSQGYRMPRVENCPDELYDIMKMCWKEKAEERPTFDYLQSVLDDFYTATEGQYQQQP", "test": "Inhibition of LYNa at 10 uM"}, "[2]": {"biological_target": "Sphingosine kinase 2 (Homo sapiens) (UniProt Q9NRA0)", "test": "Inhibition of SPHK2 at 10 uM"}, "[3]": {"biological_target": "Interleukin-1 receptor-associated kinase 4 (Homo sapiens) (UniProt Q9NWZ3)", "sequence (Q9NWZ3 whole entry)": "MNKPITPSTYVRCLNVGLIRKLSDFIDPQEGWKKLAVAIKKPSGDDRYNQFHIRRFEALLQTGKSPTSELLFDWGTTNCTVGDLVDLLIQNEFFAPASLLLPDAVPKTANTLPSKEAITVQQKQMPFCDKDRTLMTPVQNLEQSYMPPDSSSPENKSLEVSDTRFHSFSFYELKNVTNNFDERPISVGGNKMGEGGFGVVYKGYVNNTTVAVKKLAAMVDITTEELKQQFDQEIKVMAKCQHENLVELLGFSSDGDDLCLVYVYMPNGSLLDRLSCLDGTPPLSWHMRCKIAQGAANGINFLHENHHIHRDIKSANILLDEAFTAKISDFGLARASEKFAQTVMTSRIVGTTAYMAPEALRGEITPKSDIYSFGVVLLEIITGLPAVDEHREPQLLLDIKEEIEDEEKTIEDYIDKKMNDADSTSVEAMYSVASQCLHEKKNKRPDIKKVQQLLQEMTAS", "test": "Inhibition of IRAK4 at 10 uM"}, "[4]": {"biological_target": "Serine/threonine-protein kinase SIK2 (Homo sapiens) (UniProt Q9H0K1)", "test": "Inhibition of QIK at 10 uM"}, "[5]": {"biological_target": "Casein kinase I isoform alpha (Homo sapiens) (UniProt P48729)", "sequence (P48729 2-337 limits assumed)": "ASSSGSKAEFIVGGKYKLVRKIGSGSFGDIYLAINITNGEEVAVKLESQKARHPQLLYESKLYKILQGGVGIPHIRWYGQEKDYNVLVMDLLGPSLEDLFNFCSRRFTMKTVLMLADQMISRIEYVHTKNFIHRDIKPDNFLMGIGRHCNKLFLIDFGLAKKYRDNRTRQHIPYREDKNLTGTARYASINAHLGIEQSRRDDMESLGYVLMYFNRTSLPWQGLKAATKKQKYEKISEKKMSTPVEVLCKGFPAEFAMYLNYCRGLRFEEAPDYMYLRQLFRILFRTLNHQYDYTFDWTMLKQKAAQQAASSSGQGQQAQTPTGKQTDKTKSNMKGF", "test": "Inhibition of CK1a at 10 uM"}, "[6]": {"biological_target": "RAC-beta serine/threonine-protein kinase (Homo sapiens) (UniProt P31751)", "test": "Inhibition of AKT2 at 10 uM"}, "[7]": {"biological_target": "Casein kinase II alpha/beta (Homo sapiens) (UniProt P67870+P68400)", "sequence (P67870 2-215 limits assumed)": "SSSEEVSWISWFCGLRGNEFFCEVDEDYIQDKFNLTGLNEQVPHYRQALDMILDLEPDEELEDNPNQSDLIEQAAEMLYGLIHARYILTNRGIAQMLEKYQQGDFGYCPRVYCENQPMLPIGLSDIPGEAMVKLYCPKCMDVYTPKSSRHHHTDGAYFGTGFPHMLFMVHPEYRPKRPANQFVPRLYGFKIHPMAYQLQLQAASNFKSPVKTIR", "sequence (P68400 whole entry partner)": "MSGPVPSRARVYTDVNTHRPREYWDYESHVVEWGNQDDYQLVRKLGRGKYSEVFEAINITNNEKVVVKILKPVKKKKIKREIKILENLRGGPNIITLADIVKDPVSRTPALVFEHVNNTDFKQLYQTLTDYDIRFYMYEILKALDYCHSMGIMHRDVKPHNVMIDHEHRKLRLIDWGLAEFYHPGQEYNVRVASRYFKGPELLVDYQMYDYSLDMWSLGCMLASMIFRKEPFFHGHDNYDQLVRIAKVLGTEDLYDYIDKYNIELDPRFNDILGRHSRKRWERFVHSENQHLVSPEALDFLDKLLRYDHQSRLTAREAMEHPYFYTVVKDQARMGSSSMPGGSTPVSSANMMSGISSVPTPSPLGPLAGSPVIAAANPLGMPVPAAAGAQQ", "test": "Inhibition of CK2a1/b at 10 uM", "format": "protein-complex assay"}, "[8]": {"biological_target": "Tyrosine-protein kinase ITK/TSK (Homo sapiens) (UniProt Q08881)", "sequence (Q08881 whole entry)": "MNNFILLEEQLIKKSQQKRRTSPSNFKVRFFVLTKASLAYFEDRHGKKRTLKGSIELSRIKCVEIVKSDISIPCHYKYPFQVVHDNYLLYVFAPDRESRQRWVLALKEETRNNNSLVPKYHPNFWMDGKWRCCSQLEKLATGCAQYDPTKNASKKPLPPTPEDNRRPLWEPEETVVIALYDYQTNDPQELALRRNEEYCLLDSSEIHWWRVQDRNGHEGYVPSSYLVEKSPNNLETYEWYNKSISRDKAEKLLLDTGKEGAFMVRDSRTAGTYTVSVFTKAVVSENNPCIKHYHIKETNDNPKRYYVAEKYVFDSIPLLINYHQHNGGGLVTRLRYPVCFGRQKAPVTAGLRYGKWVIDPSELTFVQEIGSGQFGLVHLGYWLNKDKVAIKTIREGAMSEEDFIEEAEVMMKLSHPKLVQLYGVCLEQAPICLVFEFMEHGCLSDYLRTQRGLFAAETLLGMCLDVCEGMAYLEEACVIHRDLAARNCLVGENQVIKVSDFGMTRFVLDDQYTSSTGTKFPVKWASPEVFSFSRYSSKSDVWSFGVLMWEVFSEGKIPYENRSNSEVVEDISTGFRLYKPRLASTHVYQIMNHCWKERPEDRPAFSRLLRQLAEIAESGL", "test": "Inhibition of ITK at 10 uM"}, "[9]": {"biological_target": "Dual specificity tyrosine-phosphorylation-regulated kinase 1B (Homo sapiens) (UniProt Q9Y463)", "test": "Inhibition of DYRK1B at 10 uM"}, "[10]": {"tested_on": "Liver", "test": "Intrinsic clearance in mouse liver microsome at 3 uM", "format": "ADME", "conditions": "microsomes"}, "[11]": {"biological_target": "CDK9/cyclin T1 (Homo sapiens) (UniProt O60563+P50750)", "test": "Inhibition of CDK9-CycT1 at 10 uM", "format": "protein-complex assay"}, "[12]": {"biological_target": "Protein kinase C gamma type (Homo sapiens) (UniProt P05129)", "test": "Inhibition of PKCgamma at 10 uM"}, "[13]": {"biological_target": "Tyrosine-protein kinase CSK (Homo sapiens) (UniProt P41240)", "sequence (P41240 2-450 limits assumed)": "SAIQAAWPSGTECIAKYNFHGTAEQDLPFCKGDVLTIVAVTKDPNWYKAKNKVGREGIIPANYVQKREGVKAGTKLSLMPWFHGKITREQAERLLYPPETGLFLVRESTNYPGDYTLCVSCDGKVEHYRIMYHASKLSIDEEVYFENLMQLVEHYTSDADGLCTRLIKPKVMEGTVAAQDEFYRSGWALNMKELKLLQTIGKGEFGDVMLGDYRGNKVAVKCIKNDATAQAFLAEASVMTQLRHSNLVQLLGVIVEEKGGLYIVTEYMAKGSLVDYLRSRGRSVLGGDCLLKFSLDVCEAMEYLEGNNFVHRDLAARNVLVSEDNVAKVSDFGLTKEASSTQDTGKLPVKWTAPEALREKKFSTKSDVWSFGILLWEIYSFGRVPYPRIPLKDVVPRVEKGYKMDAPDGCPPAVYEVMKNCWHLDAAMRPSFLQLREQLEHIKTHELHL", "test": "Inhibition of CSK at 10 uM"}, "[14]": {"biological_target": "Homeodomain-interacting protein kinase 1 (Homo sapiens) (UniProt Q86Z02)", "test": "Inhibition of HIPK1 at 10 uM"}, "[15]": {"biological_target": "Tyrosine-protein kinase TXK (Homo sapiens) (UniProt P42681)", "test": "Inhibition of TXK at 10 uM"}, "[16]": {"biological_target": "Serine/threonine-protein kinase pim-2 (Homo sapiens) (UniProt Q9P1W9)", "test": "Inhibition of PIM2 at 10 uM"}, "[17]": {"biological_target": "Focal adhesion kinase 1 (Homo sapiens) (UniProt Q05397)", "test": "Inhibition of FAK at 10 uM"}, "[18]": {"tested_on": "Fibroblast growth factor receptor 3 (Homo sapiens), P22607 [K650M]", "test": "Inhibition of FGFR3 K650M mutant at 10 uM"}, "[19]": {"biological_target": "Ribosomal protein S6 kinase alpha-3 (Homo sapiens) (UniProt P51812)", "test": "Inhibition of RSK2 N-terminal at 10 uM"}, "[20]": {"biological_target": "NUAK family SNF1-like kinase 2 (Homo sapiens) (UniProt Q9H093)", "test": "Inhibition of NuaK2 at 10 uM"}, "[21]": {"biological_target": "MAP/microtubule affinity-regulating kinase 4 (Homo sapiens) (UniProt Q96L34)", "sequence (Q96L34 whole entry)": "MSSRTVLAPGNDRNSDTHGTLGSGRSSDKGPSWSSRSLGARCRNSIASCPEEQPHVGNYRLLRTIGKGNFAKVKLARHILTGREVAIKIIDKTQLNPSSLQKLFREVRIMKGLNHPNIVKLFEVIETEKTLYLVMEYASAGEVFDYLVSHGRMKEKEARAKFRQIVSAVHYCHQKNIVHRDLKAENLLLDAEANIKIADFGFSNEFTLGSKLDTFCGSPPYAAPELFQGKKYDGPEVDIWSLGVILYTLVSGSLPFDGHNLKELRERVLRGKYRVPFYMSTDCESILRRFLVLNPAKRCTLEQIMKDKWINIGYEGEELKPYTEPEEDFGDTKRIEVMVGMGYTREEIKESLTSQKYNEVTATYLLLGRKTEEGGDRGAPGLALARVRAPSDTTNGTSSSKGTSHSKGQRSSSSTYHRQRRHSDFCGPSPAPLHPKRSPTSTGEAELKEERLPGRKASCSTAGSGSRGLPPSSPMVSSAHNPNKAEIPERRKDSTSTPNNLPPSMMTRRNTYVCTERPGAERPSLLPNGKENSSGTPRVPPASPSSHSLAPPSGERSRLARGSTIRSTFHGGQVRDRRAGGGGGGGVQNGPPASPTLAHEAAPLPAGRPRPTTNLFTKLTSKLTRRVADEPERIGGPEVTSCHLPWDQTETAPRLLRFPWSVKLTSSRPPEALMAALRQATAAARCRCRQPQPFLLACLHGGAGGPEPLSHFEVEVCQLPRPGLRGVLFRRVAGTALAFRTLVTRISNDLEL", "test": "Inhibition of MARK4 at 10 uM"}, "[22]": {"biological_target": "Ribosomal protein S6 kinase alpha-4 (Homo sapiens) (UniProt O75676)", "test": "Inhibition of MSK2 N-terminal at 10 uM"}, "[23]": {"biological_target": "Ephrin type-B receptor 3 (Homo sapiens) (UniProt P54753)", "test": "Inhibition of EPHB3 at 10 uM"}, "[24]": {"tested_on": "Fibroblast growth factor receptor 3 (Homo sapiens), P22607 [K650E]", "test": "Inhibition of FGFR3 K650E mutant at 10 uM"}, "[25]": {"biological_target": "T1, Serine/threonine-protein kinase haspin (Homo sapiens, UniProt Q8TF76)", "T1 sequence (Q8TF76 whole entry)": "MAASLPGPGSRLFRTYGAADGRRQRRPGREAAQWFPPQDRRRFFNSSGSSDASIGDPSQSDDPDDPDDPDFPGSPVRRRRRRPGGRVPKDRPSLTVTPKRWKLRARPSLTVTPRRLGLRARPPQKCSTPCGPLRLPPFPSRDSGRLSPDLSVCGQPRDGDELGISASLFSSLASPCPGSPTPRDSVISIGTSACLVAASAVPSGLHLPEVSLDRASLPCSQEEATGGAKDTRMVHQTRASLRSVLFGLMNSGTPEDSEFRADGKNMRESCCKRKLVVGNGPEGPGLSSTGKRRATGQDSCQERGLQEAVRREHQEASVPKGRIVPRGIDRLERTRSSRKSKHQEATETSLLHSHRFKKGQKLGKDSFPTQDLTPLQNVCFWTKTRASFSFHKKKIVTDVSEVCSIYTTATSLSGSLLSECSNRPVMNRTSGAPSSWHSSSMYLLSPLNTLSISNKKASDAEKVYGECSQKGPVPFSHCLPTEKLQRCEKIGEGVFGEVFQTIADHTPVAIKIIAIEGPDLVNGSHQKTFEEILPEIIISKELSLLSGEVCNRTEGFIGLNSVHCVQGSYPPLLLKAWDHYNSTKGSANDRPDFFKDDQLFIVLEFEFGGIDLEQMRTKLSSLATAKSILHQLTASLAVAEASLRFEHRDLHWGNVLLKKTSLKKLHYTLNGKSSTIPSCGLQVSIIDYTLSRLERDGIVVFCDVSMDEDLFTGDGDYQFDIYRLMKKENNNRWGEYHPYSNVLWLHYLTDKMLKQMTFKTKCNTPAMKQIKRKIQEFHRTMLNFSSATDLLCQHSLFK"}, "[26]": {"tested_on": "Epidermal growth factor receptor (Homo sapiens), P00533 [L858R]", "test": "Inhibition of EGFR L858R mutant at 10 uM", "format": "protein assay"}, "[27]": {"biological_target": "Tyrosine-protein kinase Lck (Homo sapiens) (UniProt P06239)", "test": "Inhibition of LCK at 10 uM"}, "[28]": {"biological_target": "Mitogen-activated protein kinase kinase kinase 10 (Homo sapiens) (UniProt Q02779)", "test": "Inhibition of MLK2 at 10 uM"}, "[29]": {"biological_target": "Mast/stem cell growth factor receptor Kit (Homo sapiens) (UniProt P10721)", "test": "Inhibition of KIT at 10 uM"}, "[30]": {"biological_target": "3-phosphoinositide-dependent protein kinase 1 (Homo sapiens) (UniProt O15530)", "test": "Inhibition of PDK1 at 10 uM"}, "[31]": {"biological_target": "Eukaryotic translation initiation factor 2-alpha kinase 3 (Homo sapiens) (UniProt Q9NZJ5)", "test": "Inhibition of PEK at 10 uM"}, "[32]": {"biological_target": "Tyrosine-protein kinase Fes/Fps (Homo sapiens) (UniProt P07332)", "test": "Inhibition of FES at 10 uM"}, "[33]": {"biological_target": "Tyrosine-protein kinase Lyn (Homo sapiens) (UniProt P07948)", "test": "Inhibition of LYNb at 10 uM"}, "[34]": {"biological_target": "Tyrosine-protein kinase Fer (Homo sapiens) (UniProt P16591)", "test": "Inhibition of FER at 10 uM"}, "[35]": {"biological_target": "Tyrosine-protein kinase ABL2 (Homo sapiens) (UniProt P42684)", "sequence (P42684 whole entry)": "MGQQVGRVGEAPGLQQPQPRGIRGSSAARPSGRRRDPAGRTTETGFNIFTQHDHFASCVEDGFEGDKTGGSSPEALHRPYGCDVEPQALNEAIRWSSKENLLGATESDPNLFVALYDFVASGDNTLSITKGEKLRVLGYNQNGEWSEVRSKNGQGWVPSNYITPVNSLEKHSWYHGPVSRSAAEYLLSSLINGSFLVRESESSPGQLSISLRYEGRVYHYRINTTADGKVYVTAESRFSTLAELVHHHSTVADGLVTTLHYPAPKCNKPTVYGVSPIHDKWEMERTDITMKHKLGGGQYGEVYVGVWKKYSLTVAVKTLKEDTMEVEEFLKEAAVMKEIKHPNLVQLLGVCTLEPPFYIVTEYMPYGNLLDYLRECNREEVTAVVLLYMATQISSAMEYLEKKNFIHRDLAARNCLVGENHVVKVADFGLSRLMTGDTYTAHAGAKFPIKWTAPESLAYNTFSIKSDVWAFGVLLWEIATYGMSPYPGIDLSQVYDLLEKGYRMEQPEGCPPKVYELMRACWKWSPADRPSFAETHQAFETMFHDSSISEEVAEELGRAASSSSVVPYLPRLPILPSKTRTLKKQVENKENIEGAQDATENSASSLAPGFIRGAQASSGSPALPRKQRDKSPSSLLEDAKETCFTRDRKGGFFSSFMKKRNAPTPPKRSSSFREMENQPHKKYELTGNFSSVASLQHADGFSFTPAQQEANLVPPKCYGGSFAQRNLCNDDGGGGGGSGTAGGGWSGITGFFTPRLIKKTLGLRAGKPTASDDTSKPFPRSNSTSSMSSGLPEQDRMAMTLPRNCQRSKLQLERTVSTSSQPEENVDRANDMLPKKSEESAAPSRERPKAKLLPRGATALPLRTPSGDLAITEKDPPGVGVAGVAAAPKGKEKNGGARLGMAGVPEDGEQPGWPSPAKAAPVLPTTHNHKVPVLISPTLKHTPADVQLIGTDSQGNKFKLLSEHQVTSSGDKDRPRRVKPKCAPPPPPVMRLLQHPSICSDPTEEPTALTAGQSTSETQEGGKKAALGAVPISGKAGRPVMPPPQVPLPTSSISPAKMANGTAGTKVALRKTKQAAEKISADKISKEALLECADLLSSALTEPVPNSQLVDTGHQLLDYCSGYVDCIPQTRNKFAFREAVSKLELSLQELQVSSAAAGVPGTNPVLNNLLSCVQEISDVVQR", "test": "Inhibition of ARG at 10 uM"}, "[36]": {"biological_target": "Serine/threonine-protein kinase pim-1 (Homo sapiens) (UniProt P11309)", "test": "Inhibition of PIM1 at 10 uM"}, "[37]": {"biological_target": "Tyrosine-protein kinase BTK (Homo sapiens) (UniProt Q06187)", "test": "Inhibition of BTK at 10 uM"}}, "note": "pIC50: −log10 of the molar value.", "data": [{"smiles": "COc1ccc2c3ccnc(C(F)(F)F)c3n(CCCCN)c2c1", "values": [{"measurement": "inhibition", "setting": "[1]", "value": 7, "unit": "%"}, {"measurement": "inhibition", "setting": "[2]", "value": 6, "unit": "%"}, {"measurement": "inhibition", "setting": "[3]", "value": 16, "unit": "%"}, {"measurement": "inhibition", "setting": "[4]", "value": 26, "unit": "%"}, {"measurement": "inhibition", "setting": "[5]", "value": 73, "unit": "%"}, {"measurement": "inhibition", "setting": "[6]", "value": 4, "unit": "%"}, {"measurement": "inhibition", "setting": "[7]", "value": 0, "unit": "%"}, {"measurement": "inhibition", "setting": "[8]", "value": 7, "unit": "%"}, {"measurement": "inhibition", "setting": "[9]", "value": 98, "unit": "%"}, {"measurement": "CLH", "setting": "[10]", "value": 3.8, "unit": "µL/min/mg"}, {"measurement": "inhibition", "setting": "[11]", "value": 79, "unit": "%"}, {"measurement": "inhibition", "setting": "[12]", "value": 22, "unit": "%"}, {"measurement": "inhibition", "setting": "[13]", "value": 5, "unit": "%"}, {"measurement": "inhibition", "setting": "[14]", "value": 41, "unit": "%"}, {"measurement": "inhibition", "setting": "[15]", "value": 8, "unit": "%"}, {"measurement": "inhibition", "setting": "[16]", "value": 64, "unit": "%"}, {"measurement": "inhibition", "setting": "[17]", "value": 0, "unit": "%"}, {"measurement": "inhibition", "setting": "[18]", "value": 0, "unit": "%"}, {"measurement": "inhibition", "setting": "[19]", "value": 28, "unit": "%"}, {"measurement": "inhibition", "setting": "[20]", "value": 27, "unit": "%"}, {"measurement": "inhibition", "setting": "[21]", "value": 50, "unit": "%"}, {"measurement": "inhibition", "setting": "[22]", "value": 16, "unit": "%"}, {"measurement": "inhibition", "setting": "[23]", "value": 0, "unit": "%"}, {"measurement": "inhibition", "setting": "[24]", "value": 3, "unit": "%"}, {"measurement": "pIC50", "setting": "[25]", "value": 7.00}, {"measurement": "inhibition", "setting": "[26]", "value": 10, "unit": "%"}, {"measurement": "inhibition", "setting": "[27]", "value": 11, "unit": "%"}, {"measurement": "inhibition", "setting": "[28]", "value": 5, "unit": "%"}, {"measurement": "inhibition", "setting": "[29]", "value": 10, "unit": "%"}, {"measurement": "inhibition", "setting": "[30]", "value": 0, "unit": "%"}, {"measurement": "inhibition", "setting": "[31]", "value": 0, "unit": "%"}, {"measurement": "inhibition", "setting": "[32]", "value": 4, "unit": "%"}, {"measurement": "inhibition", "setting": "[33]", "value": 0, "unit": "%"}, {"measurement": "inhibition", "setting": "[34]", "value": 8, "unit": "%"}, {"measurement": "inhibition", "setting": "[35]", "value": 0, "unit": "%"}, {"measurement": "inhibition", "setting": "[36]", "value": 91, "unit": "%"}, {"measurement": "inhibition", "setting": "[37]", "value": 0, "unit": "%"}]}]}
